Experimental data: PubChem BioAssay AID248 (DTP/NCI, 2004)
Values joined by “and” are separate entries in the source; they are usually repeats but may differ in a detail not shown here. Identical values can stand only once. Inconclusive results and toxic doses are left out. Cut-off read from the data, not from the text of the source: active = T/C of 150% or more; inactive = T/C below 125%.

Test system: L1210 leukemia ip in BDF1 mice, survival T/C
Assay: NCI In Vivo Anticancer Drug Screen. Data for tumor model L1210 Leukemia (intraperitoneal) in B6D2F1 (BDF1) mice
Conditions: endpoint: mean survival time, higher = longer survival
How it was run: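 Tumor was transplanted into mice, which were then dosed with test compound or vehicle alone. Survival was recorded for each group, and the treated figure was expressed relative to the control figure.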

[1] = dose: 50.0 mg/kg/injection, schedule: Q01DX001 (ip), vehicle: saline
[2] = dose: 100.0 mg/kg/injection, schedule: Q01DX001 (ip), vehicle: saline
[3] = dose: 400.0 mg/kg/injection, schedule: Q01DX001 (ip), vehicle: saline
[4] = dose: 100.0 mg/kg/injection, schedule: Q01DX009 (ip), vehicle: Klucel (hydroxypropylcellulose) (HPC)
[5] = dose: 100.0 mg/kg/injection, schedule: Q04DX003 (ip), vehicle: Klucel (hydroxypropylcellulose) (HPC)
[6] = dose: 200.0 mg/kg/injection, schedule: Q01DX009 (ip), vehicle: Klucel (hydroxypropylcellulose) (HPC)
[7] = dose: 200.0 mg/kg/injection, schedule: Q04DX003 (ip), vehicle: Klucel (hydroxypropylcellulose) (HPC)
[8] = dose: 400.0 mg/kg/injection, schedule: Q04DX003 (ip), vehicle: Klucel (hydroxypropylcellulose) (HPC)
[9] = dose: 100.0 mg/kg/injection, schedule: Q04DX002 (ip), vehicle: Klucel (hydroxypropylcellulose) (HPC)
[10] = dose: 200.0 mg/kg/injection, schedule: Q04DX002 (ip), vehicle: Klucel (hydroxypropylcellulose) (HPC)
[11] = dose: 400.0 mg/kg/injection, schedule: Q04DX002 (ip), vehicle: Klucel (hydroxypropylcellulose) (HPC)
[12] = dose: 200.0 mg/kg/injection, schedule: Q01DX001 (ip), vehicle: saline
[13] = dose: 50.0 mg/kg/injection, schedule: Q01DX009 (ip), vehicle: saline
[14] = dose: 100.0 mg/kg/injection, schedule: Q04DX003 (ip), vehicle: saline

Measured: T/C

O=C(O)c1sc(C(=O)O)c(O)c1O
inactive: dose: 12.5 mg/kg/injection, schedule: Q01DX001 (ip), vehicle: saline with Tween-80 111 % of control | dose: 25.0 mg/kg/injection, schedule: Q01DX001 (ip), vehicle: saline with Tween-80 103 % of control | dose: 50.0 mg/kg/injection, schedule: Q01DX001 (ip), vehicle: saline with Tween-80 100 % of control

O=C1CCCC(=O)NNC(=O)Nc2ccc(cc2)-c2ccc(cc2)NC(=O)NN1
inactive: [1] 104 % of control | [2] 104 % of control | [3] 96 % of control

COc1cc2c(c(OC)c1OC)-c1ccc(OC)c(=O)cc1[C@@H](NC(=O)CCl)CC2
inactive: dose: 0.06 mg/kg/injection, schedule: Q01DX009 (ip), vehicle: Klucel (hydroxypropylcellulose) (HPC) 108 % of control | dose: 0.12 mg/kg/injection, schedule: Q01DX009 (ip), vehicle: Klucel (hydroxypropylcellulose) (HPC) 110 % of control | dose: 0.14 mg/kg/injection, schedule: Q01DX009 (ip), vehicle: saline 115 % of control | dose: 0.18 mg/kg/injection, schedule: Q04DX003 (ip), vehicle: Klucel (hydroxypropylcellulose) (HPC) 102 % of control | dose: 0.23 mg/kg/injection, schedule: Q01DX009 (ip), vehicle: saline 121 % of control | dose: 0.25 mg/kg/injection, schedule: Q01DX009 (ip), vehicle: Klucel (hydroxypropylcellulose) (HPC) 118 % of control and 124 % of control | dose: 0.37 mg/kg/injection, schedule: Q04DX003 (ip), vehicle: Klucel (hydroxypropylcellulose) (HPC) 119 % of control | dose: 0.75 mg/kg/injection, schedule: Q04DX003 (ip), vehicle: Klucel (hydroxypropylcellulose) (HPC) 120 % of control

Nc1cc(Cl)cc2c1-c1c(Cl)cc(Cl)cc1C2O (stereo not drawn)
inactive: [4] 102 % of control | [5] 102 % of control | [6] 100 % of control | [7] 105 % of control | [8] 97 % of control

O=C1OC(=O)C2CC(Br)C(Br)CC12 (stereo not drawn)
inactive: dose: 100.0 mg/kg/injection, schedule: Q01DX009 (ip), vehicle: saline with Tween-80 92 % of control | dose: 100.0 mg/kg/injection, schedule: Q04DX003 (ip), vehicle: saline with Tween-80 94 % of control and 102 % of control | dose: 200.0 mg/kg/injection, schedule: Q01DX009 (ip), vehicle: saline with Tween-80 89 % of control | dose: 200.0 mg/kg/injection, schedule: Q04DX003 (ip), vehicle: saline with Tween-80 94 % of control | dose: 400.0 mg/kg/injection, schedule: Q01DX009 (ip), vehicle: saline with Tween-80 89 % of control | dose: 400.0 mg/kg/injection, schedule: Q04DX003 (ip), vehicle: saline with Tween-80 91 % of control and 93 % of control

COC(=O)NS(=O)(=O)c1ccn(C)c1
inactive: dose: 100.0 mg/kg/injection, schedule: Q01DX001 (ip), vehicle: Klucel (hydroxypropylcellulose) (HPC) 97 % of control | [5] 100 % of control | dose: 200.0 mg/kg/injection, schedule: Q01DX001 (ip), vehicle: Klucel (hydroxypropylcellulose) (HPC) 98 % of control | [7] 100 % of control | dose: 400.0 mg/kg/injection, schedule: Q01DX001 (ip), vehicle: Klucel (hydroxypropylcellulose) (HPC) 104 % of control | [8] 100 % of control

O=C(Nc1ccccc1F)C(Cl)(Cl)Cl
inactive: [9] 104 % of control | [10] 104 % of control

Nc1c(Cl)cc(I)cc1C(=O)O
inactive: [9] 94 % of control | [10] 102 % of control | [11] 102 % of control

CCC(C)NC(=O)NC (stereo not drawn)
inactive: [4] 100 % of control | [6] 97 % of control | dose: 400.0 mg/kg/injection, schedule: Q01DX009 (ip), vehicle: Klucel (hydroxypropylcellulose) (HPC) 101 % of control

Cn1c(=O)c(-c2ccccc2)[n+]([O-])c2ccccc21
inactive: [1] 104 % of control | [2] 101 % of control | [12] 101 % of control | [3] 101 % of control

O=C(c1ccc2cc(Cl)c3ccccc3c2c1)C(Br)CBr (stereo not drawn)
inactive: dose: 55.0 mg/kg/injection, schedule: Q01DX Z (ip), vehicle: methylcellulose (MC) 88 % of control | dose: 83.0 mg/kg/injection, schedule: Q01DX Z (ip), vehicle: methylcellulose (MC) 93 % of control | dose: 125.0 mg/kg/injection, schedule: Q01DX Z (ip), vehicle: methylcellulose (MC) 93 % of control

CCN=C(Nc1cccc(C2=NCCN2)c1)c1ccc(C(=NCC)Nc2cccc(C3=NCCN3)c2)cc1
inactive: dose: 2.0 mg/kg/injection, schedule: Q01DX Z (ip), vehicle: carboxymethylcellulose (CMC) 109 % of control | dose: 4.0 mg/kg/injection, schedule: Q01DX Z (ip), vehicle: carboxymethylcellulose (CMC) 95 % of control | dose: 8.0 mg/kg/injection, schedule: Q01DX Z (ip), vehicle: carboxymethylcellulose (CMC) 103 % of control | dose: 16.0 mg/kg/injection, schedule: Q01DX Z (ip), vehicle: carboxymethylcellulose (CMC) 107 % of control

[C-]#[N+]C([N+]#[C-])=S(C)C
inactive: [13] 102 % of control | dose: 100.0 mg/kg/injection, schedule: Q01DX009 (ip), vehicle: saline 109 % of control | [14] 103 % of control | dose: 200.0 mg/kg/injection, schedule: Q01DX009 (ip), vehicle: saline 105 % of control | dose: 200.0 mg/kg/injection, schedule: Q04DX003 (ip), vehicle: saline 101 % of control

COP(=O)(O)NC(C)=O
inactive: dose: 100.0 mg/kg/injection, schedule: Q04DX002 (ip), vehicle: saline 105 % of control | dose: 200.0 mg/kg/injection, schedule: Q04DX002 (ip), vehicle: saline 108 % of control | dose: 400.0 mg/kg/injection, schedule: Q04DX002 (ip), vehicle: saline 91 % of control

Cc1c(C)c2cccc(C)c2[nH]c1=O
inactive: [2] 95 % of control | [12] 95 % of control | [3] 103 % of control

Cc1ncc(O)c(CO)c1O
inactive: [1] 108 % of control | [2] 96 % of control | [12] 96 % of control | [3] 96 % of control

CC1=CC(=O)[C@@H](O)[C@]2(C)[C@H]3[C@@]4(O)OC[C@]35[C@H]([C@@H](C)[C@H]4O)[C@@H](OC(=O)c3ccccc3)C(=O)O[C@@H]5C[C@@H]12
inactive: dose: 0.25 mg/kg/injection, schedule: Q01DX009 (ip), vehicle: saline with Tween-80 102 % of control | dose: 0.5 mg/kg/injection, schedule: Q01DX009 (ip), vehicle: saline with Tween-80 103 % of control | dose: 1.0 mg/kg/injection, schedule: Q01DX009 (ip), vehicle: saline with Tween-80 103 % of control | dose: 2.0 mg/kg/injection, schedule: Q01DX009 (ip), vehicle: saline with Tween-80 108 % of control | dose: 4.0 mg/kg/injection, schedule: Q01DX009 (ip), vehicle: saline with Tween-80 111 % of control

COC1OC(CCl)C(OC(C)=O)C(OC(C)=O)C1OC(C)=O (stereo not drawn)
inactive: [9] 96 % of control and 106 % of control | [10] 104 % of control and 106 % of control | [11] 101 % of control and 103 % of control

CC12C(=O)C(C(c3ccccc3)=C1c1ccccc1)C1C(=O)OC(=O)C12 (stereo not drawn)
inactive: dose: 75.0 mg/kg/injection, schedule: Q01DX001 (ip), vehicle: saline 95 % of control | dose: 150.0 mg/kg/injection, schedule: Q01DX001 (ip), vehicle: saline 86 % of control | dose: 300.0 mg/kg/injection, schedule: Q01DX001 (ip), vehicle: saline 95 % of control

CNC(C)Cc1ccc2c(c1)OCO2 (stereo not drawn)
inactive: dose: 12.5 mg/kg/injection, schedule: Q01DX009 (ip), vehicle: saline 105 % of control | dose: 25.0 mg/kg/injection, schedule: Q01DX009 (ip), vehicle: saline 98 % of control | dose: 25.0 mg/kg/injection, schedule: Q04DX003 (ip), vehicle: saline 106 % of control | [13] 100 % of control and 104 % of control | dose: 50.0 mg/kg/injection, schedule: Q04DX003 (ip), vehicle: saline 104 % of control | dose: 75.0 mg/kg/injection, schedule: Q04DX003 (ip), vehicle: saline 92 % of control | [14] 98 % of control
